{"source": "patent US20210268062A1", "about": "“INFLAMMATORY SKIN DISORDER TREATMENT” (NOVAPEP PTY LTD, priority 2018, published 2021)", "key": {"p-AKT": {"test_system": "p-AKT", "experiment": "p-AKT ELISA in AE.Hy926 cells treated with PAR1 peptide and/or thrombin", "format": "cell-based, human", "set-up": "pAKT compared to adding thrombin alone: dose or concentration left out as unconfirmed", "description": "AE.Hy926 cells (ATCC® CRL-2922′), the human umbilical vein cell line, established by fusing primary human umbilical vein cells with a thioguanine-resistant clone of A549 by exposure to polyethylene glycol (PEG), were cultured in Dulbecco's Modified Eagle's Medium (DMEM, high glucose) containing 10% fetal bovine serum (FBS) in 75 sq cm flasks. When cells reached confluence, they were trypsinzed and seeded into 48 well plates at 1×10^4 viable cells/well for 2 days to reach complete confluency. Before treatment, cells were preincubated with DMEM medium (no FBS) for 2 hrs, then switched to fresh DMEM and treated with: • PAR1 12mer peptide (shown on graphs as PAR1) (or scrambled control (SC) of PAR1 peptide) • thrombin\neither alone or at different combinations for 1 hr. After treatment, media were discarded and 100 μl lysis buffer was added to each wells and cell lysates were collected and stored in −40° C. for ELISA.\nHuman p-GSK and p-AKT were measured using ELISA Dueset kits (R&D Systems) according to manufacturers' instructions."}, "Akt": {"test_system": "Akt", "experiment": "Induction of Akt activation in keratinocytes (phosphorylation of Ser473)", "format": "cell-based", "conditions": "with PAR-1 inhibitor", "description": "Briefly, cells are washed three times with PBS and lysed with lysis buffer (0.15 M NaCl, 0.01 mM PMSF, 1% NP-40, 0.02 M Tris, 6 M urea/H2O). Cell lysates are centrifuged at 10,000 g for 15 minutes and supernatants are separated by 10% sodium-dodecyl-sulphate polyacrylamide-gel electrophoresis (SDS-PAGE) and transferred to a PDVF membrane. The primary antibodies used are as follows against pan or phospho specific forms of Akt, GSK3β, ERK1/2. Immunoreactivity is detected by using the ECL detection system (Amersham Biosciences, Buckinghamshire, UK). Anti-human (3-actin (Sigma-Aldrich) antibody is included to normalize for unequal loading. Protein band intensity is evaluated by densitometry by ImageQuant™ LAS 4000 (GE Healthcare Life Sciences).\nTo confirm activation of Akt by TR47, Akt-mediated inactivation of GSK3β via phosphorylation at Ser9 is determined. GSK3β is a well-known downstream substrate for Akt."}}}
{"compound": "thrombin", "values": [{"measurement": "phosphorylation of AKT", "setting": "p-AKT; thrombin alone at 0.1 and 0.25 nM, FIG. 8A", "result": "inhibited phosphorylation of AKT"}]}
{"compound": "NPNDKYEPFWED (listed as Homo sapiens) [PAR1 peptide, PAR1 12mer peptide]", "values": [{"measurement": "Akt activity", "setting": "p-AKT; PAR1 peptide added 15 mins before or after thrombin, FIG. 8B", "result": "enhance the Akt activity"}, {"measurement": "activation of Akt as determined by phosphorylation of Ser473", "setting": "p-AKT; PAR1 peptide, after 1 hour, AE.Hy926 cells", "result": "induced robust activation of Akt"}, {"measurement": "pAKT", "setting": "p-AKT; higher concentrations, eg 10 nM thrombin in the presence of peptide", "result": "significantly enhanced pAKT"}, {"measurement": "pAKT compared to adding thrombin alone", "setting": "p-AKT; lower doses of thrombin and PAR1 peptide added together simultaneously, FIG. 8A", "result": "increased pAKT"}]}
{"compound": "CC(C)c1ccc(Cn2ccc3c4c(N)nc(NC5CC5)nc4ccc32)cc1", "note": "[SCH79797]", "values": [{"measurement": "dependence of Akt activation on PAR-1", "setting": "Akt", "result": "activation of Akt is dependent on PAR-1"}]}
